Like-named read-outs stand apart in the source and are kept apart here.
Key:
E. faecalis gelatinase [1] = target: T1, E. faecalis gelatinase (Enterococcus faecalis, UniProt Q833V7); assay type: biochemical; conditions: 6 mU gelatinase, 1 hour
T1 construct: The E. faecalis strain contained gelatinase and supernatants were used directly; made in house; host or cells: Enterococcus faecalis isolate from a chronic venous wound (natural producer); unpurified culture supernatant

P. aeruginosa elastase = conditions: 1 hour; for Inhibition of LL-37 degradation by P. aeruginosa elastase: 12 mU elastase; for Inhibition of LL-37 degradation by P. aeruginosa elastase by sulphated saccharides: 1 μg LL-37, 12 mU elastase, 15 μl 10 mM Tris-buffer
[2] = target: T2, S. pyogenes cysteine proteinase (Streptococcus pyogenes, UniProt P0C0J0)
[3] = target: T2, S. pyogenes cysteine proteinase; remark: listed apart in the source
LL-37 = target: T3, LL-37 (Homo sapiens, UniProt P49913); assay: Slot-binding assay: iodinated dermatan sulphate (DS36) binding to LL-37 on nitrocellulose, competition; conditions: LL-37 0.2-5 μg on nitrocellulose
T3 sequence (P49913 134-170 limits assumed): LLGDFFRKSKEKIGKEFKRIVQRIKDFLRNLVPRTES
Method: LL-37 (0.2-5 μg) was applied onto nitrocellulose and incubated with iodinated dermatan sulphate (DS36). Different polysaccharides were added for competition of binding. DS36, DS18, DS13 (dermatan sulphate 36, 18, and 13), CS4 and CS6 (chondroitin sulphate 4 and 6), CS-D (chondroitin sulphate D) and CS-E (chondroitin sulphate E).
LL-37 (0.2-5 μg) was applied onto nitrocellulose and incubated with iodinated dermatan sulphate (DS36). Different cationic substances, as indicated on top of the various panels, were added for competition of binding. (a), p-1-lys; poly-L-lysine, p-1-arg; poly-L-arginine, DEAE; DEAE-dextran, PB; polybrene. (b), CH; chitosan, PEI, polyethyleneimine, PM; protamine, PMX; polymyxin B, PMXnp; polymyxin B nonapeptide.
Radioiodination of DS36 was performed according to previous protocols (F Cheng, K. Yoshida, D. Heinegard, L. Å. Fransson, Glycobiology, 2, 553 (1992)). Slot-binding assays were carried out as follows: α-defensin peptide I (Bachem, Switzerland) was blotted onto nitrocellulose membranes (Hybond, Amersham). Membranes were blocked (PBS, pH 7.4, 0.25% Tween 20, 3% bovine serum albumin) for 1 h and incubated with radiolabelled DS (˜20 μl/ml) for 1 h in the same buffer. Unlabelled polysaccharides were added for competition of binding (2 mg/ml). The membranes were washed (3×10 min) (PBS, pH 7.4, 0.25% Tween 20). Bas 2000 radioimaging system (Fuji) was used for visualization of radioactivity.
LL-37 (0.2-5 μg) was applied onto nitrocellulose and incubated with iodinated dermatan sulphate (DS36). Different polysaccharides were added for competition of binding: DS36, DS18, DS13, CS-4, CS-6, CS-D (chondroitin sulphate D) and CS-E (chondroitin sulphate E). […] Radiolabelled DS was, however, displaced by DS-36, DS18, DS13 and CS-E.
The effects of various cationic molecules on the DS-LL-37 interaction were monitored using slot-blot assays as described in Example 2. DS binding to LL-37 was blocked by poly-L-lysine, poly-L-arginine, DEAE-dextran, polybrene, chitosan and polyethyleneimine.

E. faecalis gelatinase [4] = target: T4, E. faecalis gelatinase (Enterococcus faecalis, UniProt Q833V7); assay type: biochemical; conditions: 1 μg LL-37, 3 mU, 1 hour and 6 hours
T4 construct: The E. faecalis strain contained gelatinase and supernatants were used directly; made in house; host or cells: Enterococcus faecalis isolate from a chronic venous wound (natural producer); unpurified culture supernatant
T4 sequence (Q833V7 whole entry, looked up): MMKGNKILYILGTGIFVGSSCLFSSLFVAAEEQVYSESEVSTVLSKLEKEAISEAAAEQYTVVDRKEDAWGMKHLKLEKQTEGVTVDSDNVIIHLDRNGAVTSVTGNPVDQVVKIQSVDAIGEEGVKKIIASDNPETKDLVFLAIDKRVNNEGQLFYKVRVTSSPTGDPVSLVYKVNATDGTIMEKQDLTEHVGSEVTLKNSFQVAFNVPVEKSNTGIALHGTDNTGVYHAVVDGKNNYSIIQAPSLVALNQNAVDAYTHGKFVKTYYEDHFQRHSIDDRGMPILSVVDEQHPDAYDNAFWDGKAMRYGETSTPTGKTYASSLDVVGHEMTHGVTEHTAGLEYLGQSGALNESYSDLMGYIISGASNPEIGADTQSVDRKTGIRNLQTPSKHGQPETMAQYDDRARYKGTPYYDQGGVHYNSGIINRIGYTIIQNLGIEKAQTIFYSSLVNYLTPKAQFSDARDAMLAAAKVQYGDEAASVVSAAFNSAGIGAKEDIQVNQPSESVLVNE

E. faecalis [5] = assay: Bactericidal assay of LL-37 after incubation with P. aeruginosa elastase; assay type: cell-based, Enterococcus faecalis; conditions: 0.1 μg LL-37, E. faecalis 2×10^6 cfus/ml, 2 h, 37° C.
α-defensin 1 = target: T5, α-defensin 1 (Homo sapiens, UniProt P59665); assay: Slot-binding assay: radioiodinated DS binding to blotted α-defensin 1, competition by unlabelled polysaccharides; conditions: unlabelled polysaccharide 2 mg/ml, ~100-fold excess
T5 construct: purchased Bachem, Switzerland
T5 sequence (P59665 65-94 limits assumed): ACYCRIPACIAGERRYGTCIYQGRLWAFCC

P. aeruginosa = assay: Anti-microbial assay (CFU) with α-defensin 1 with or without GAG chains; assay type: cell-based, Pseudomonas aeruginosa; conditions: 4 h, 37° C.
S. pyogenes = assay: as above; conditions: 2 h, 37° C.
E. faecalis [6] = assay: as above; conditions: 2 h, 37° C.

For c1cnc2c(c1)ccc1cccnc12 [1,10-phenantroline, reference compound], the “Inhibition of LL-37 degradation by E. faecalis gelatinase” value (E. faecalis gelatinase [1]; inhibitor 2 mM) was “Degradation was abolished” and the “Inhibition of LL-37 degradation by P. aeruginosa elastase” value (P. aeruginosa elastase; inhibitor 2 mM) was “Degradation was abolished”.

For CC(C)C[C@H](NC(=O)[C@H]1O[C@@H]1C(=O)O)C(=O)NCCCCN=C(N)N [E64], the “Effect on degradation of decorin and high molecular weight proteoglycans by S. pyogenes extracellular products” value [2] was “completely blocked the effect”, the “Effect on degradation of decorin by S. pyogenes cysteine proteinase” value [2] was “abolished degradation” and the “Inhibition of LL-37 degradation by S. pyogenes cysteine proteinase” value [3] was “Degradation was abolished”.

For CNC(=O)[C@H](Cc1c[nH]c2ccccc12)NC(=O)[C@@H](CC(=O)NO)CC(C)C [GM6001, reference compound], the “Inhibition of LL-37 degradation by E. faecalis gelatinase” value (E. faecalis gelatinase [1]; inhibitor 100 μM) was “Degradation was abolished” and the “Inhibition of LL-37 degradation by P. aeruginosa elastase” value (P. aeruginosa elastase; inhibitor 100 μM) was “Degradation was abolished”.

In the case of O=S(=O)(O)OC[C@H]1O[C@@](COS(=O)(=O)O)(O[C@H]2O[C@H](COS(=O)(=O)O)[C@@H](OS(=O)(=O)O)[C@H](OS(=O)(=O)O)[C@H]2OS(=O)(=O)O)[C@@H](OS(=O)(=O)O)[C@@H]1OS(=O)(=O)O [sucroseoctasulphate], the “Inhibition of LL-37 degradation by P. aeruginosa elastase by sulphated saccharides” value (P. aeruginosa elastase) is reported as “inhibited the degradation”.

CC(=O)NC1C(O)OC(COS(=O)(=O)O)C(OS(=O)(=O)O)C1OC1OC(C(=O)O)=CC(O)C1OS(=O)(=O)O [ΔUA(2S)-GalNAc(4,6S)] was tested, and the “Inhibition of LL-37 degradation by P. aeruginosa elastase by sulphated saccharides” value (P. aeruginosa elastase) was “inhibited the degradation”.

For DEAE-dextran, the “Effect of cationic molecules on DS binding to LL-37” value (shortened to “Effect of cationic molecules”) (LL-37) was “blocked”.

“LL-37: cationic antimicrobial peptide LL-37 (SEQ ID NO: 1)” was tested, and the “Degradation of LL-37 by E. faecalis gelatinase” value (E. faecalis gelatinase [4]) was “degradation of LL-37 by bacterial proteinases”, the “Bactericidal activity of LL-37 after incubation with P. aeruginosa elastase” value (E. faecalis [5]) was “inactivated” and the “Degradation of LL-37 by S. pyogenes cysteine proteinase” value [3] was “degradation of LL-37 by bacterial proteinases”.

In the case of Polymyxin B [reference compound], the “Effect of cationic molecules” value (LL-37) is reported as “did not block the binding”.

chitosan was tested, and the “Effect of cationic molecules” value (LL-37) was “blocked”.

For dextran, the “Competition of radiolabelled DS binding to α-defensin 1 by unlabelled polysaccharide” value (“Competition of radiolabelled DS binding” below) (α-defensin 1) was “not”.

In the case of dextran sulfate, the “Competition of radiolabelled DS binding” value (α-defensin 1) is reported as “displaced the radiolabelled DS”.

In the case of heparin [reference compound], the “Competition of radiolabelled DS binding” value (α-defensin 1) is reported as “displaced the radiolabelled DS”.

With poly-L-arginine the “Effect of cationic molecules” value (LL-37) was “blocked”.

In the case of poly-L-lysine, the “Effect of cationic molecules” value (LL-37) is reported as “blocked”.

polybrene was tested, and the “Effect of cationic molecules” value (LL-37) was “blocked”.

With polyethyleneimine the “Effect of cationic molecules” value (LL-37) was “blocked”.

In the case of “polymyxin B nonapeptide [reference compound]”, the “Effect of cationic molecules” value (LL-37) is reported as “did not block the binding”.

protamine [reference compound] was tested, and the “Effect of cationic molecules” value (LL-37) was “Reduced levels of binding”.

For “α-defensin 1: cationic antimicrobial peptide α-defensin (SEQ ID NO: 2), from Bachem”, the “α-defensin 1 concentration at which bacteria were effectively killed” value (“α-defensin 1 concentration” for short) (P. aeruginosa) was ≥ 4 µg/mL, the “α-defensin 1 concentration” value (S. pyogenes) was ≥ 4 µg/mL and the “α-defensin 1 concentration” value (E. faecalis [6]) was ≥ 4 µg/mL.

Source: patent US7335355B2, “Antimicrobial agent” (Hansa Medical AB, priority 2000, dated 2008)
